The target of one series is human A1AR (Homo sapiens (Human), UniProt P30542). Briefly: Binding assay to the human A1AR ([3H]R-PIA). The conditions noted are these: 1 h; 10 μM; [3H]R-PIA (2.0 nM), CHO cells; Table 2; read-out: hA1AR % displ. at 10 μM. The protocol:
(§1) CHO (Chinese hamster ovary) cells expressing the recombinant human ARs (HEK-293 cells were used for the human A2AAR) were cultured in DMEM and F12 (1:1) supplemented with 10% fetal bovine serum, 100 units/ml penicillin, […] streptomycin and 2 μmol/ml glutamine. Cells were harvested by trypsinization. After homogenization and suspension, cells were centrifuged at 500 g for 10 min, and the pellet was re-suspended in 50 mM Tris.HCl buffer (pH 7.4) containing 10 mM MgCl2. The suspension was homogenized with an electric homogenizer for 10 sec, and was then re-centrifuged at 20,000 g for 20 min at 4° C. The resultant pellets were resuspended in buffer in the presence of 3 Units/mL adenosine deaminase, and the suspension was stored at −80° C. until the binding experiments. The protein concentration was measured using the Bradford assay.
(§2) For binding to the human A1AR, [^3H]R-PIA (2 nM) was incubated with membranes (40 μg/tube) from CHO cells stably expressing the human A1AR at 25° C. for 60 min in 50 mM Tris.HCl buffer (pH 7.4; MgCl2, 10 mM) in a total assay volume of 200 μL. Nonspecific binding was determined using 10 μM of N^6-cyclopentyladenosine. For human A2A AR binding, membranes (20 μg/tube) from HEK-293 cells stably expressing the human A2A AR were incubated with 15 nM [^3H]CGS21680 at 25° C. for 60 min in 200 μL of 50 mM Tris.HCl, pH 7.4, containing 10 mM MgCl2. N-5′-ethyluronamidoadenosine (10 μM) was used to define nonspecific binding. Reaction was terminated by filtration with GF/B filters.

The target of the next series is human A2A AR (Homo sapiens (Human), UniProt P29274). The experiment in a line: Binding assay to the human A2A AR ([3H]CGS21680). The settings on record: 10 μM; [3H]CGS 21680 (15 nM), HEK293 cells; Table 2. The protocol: as §1, §2
Chain of human A2A AR (P29274 whole entry): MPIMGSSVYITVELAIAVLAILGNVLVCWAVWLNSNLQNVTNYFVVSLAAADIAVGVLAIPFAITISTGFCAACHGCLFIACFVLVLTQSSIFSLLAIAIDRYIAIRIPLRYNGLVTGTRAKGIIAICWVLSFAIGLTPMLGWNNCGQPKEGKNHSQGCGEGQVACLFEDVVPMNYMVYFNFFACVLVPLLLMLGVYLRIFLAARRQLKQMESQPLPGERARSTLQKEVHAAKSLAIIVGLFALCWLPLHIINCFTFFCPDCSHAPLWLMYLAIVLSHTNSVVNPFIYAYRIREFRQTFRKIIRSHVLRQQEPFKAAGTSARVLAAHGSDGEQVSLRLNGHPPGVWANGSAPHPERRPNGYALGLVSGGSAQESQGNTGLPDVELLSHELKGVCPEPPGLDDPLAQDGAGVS
The target of another series is hA2BAR (Homo sapiens (Human), UniProt P29275). Briefly: Effect on NECA-induced cyclic AMP accumulation at A2B receptor. Further: NECA (150 nM)-induced cyclic AMP accumulation. In kind it is cell-based. The settings on record: read-out: hA2BAR % inhib. at 10 μM.
Chain of hA2BAR (P29275 whole entry): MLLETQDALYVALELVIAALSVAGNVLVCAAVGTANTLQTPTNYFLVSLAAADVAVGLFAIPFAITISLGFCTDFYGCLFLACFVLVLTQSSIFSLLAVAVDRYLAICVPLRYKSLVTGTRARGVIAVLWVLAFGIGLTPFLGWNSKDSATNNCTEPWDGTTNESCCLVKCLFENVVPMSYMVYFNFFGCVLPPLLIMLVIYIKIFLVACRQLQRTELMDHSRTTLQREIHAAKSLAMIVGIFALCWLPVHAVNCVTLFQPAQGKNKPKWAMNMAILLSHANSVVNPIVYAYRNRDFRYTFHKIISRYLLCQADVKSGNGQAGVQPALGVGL
The target in another series is human A3AR (Homo sapiens (Human), UniProt P0DMS8). The experiment in a line: Competitive binding assay to the human A3AR ([125I]I-AB-MECA). The settings on record: for inhibition at 10 µM: 1 h, [125I]I-AB-MECA (0.5 nM), CHO cells, Table 2, read-out: hA3AR % displ. at 10 μM. The protocol:
as §1
Each tube in the competitive binding assay contained 100 μl membrane suspension (20 μg protein), 50 μl [^125I]-AB-MECA (0.5 nM), and 50 μl of increasing concentrations of the test ligands in Tris.HCl buffer (50 mM, pH 8.0) containing 10 mM MgCl2, 1 mM EDTA. Nonspecific binding was determined using 10 μM of 5′-N-ethylcarboxamidoadenosine in the buffer. The mixtures were incubated at 25° C. for 60 min. Binding reactions were terminated by filtration through Whatman GF/B filters under reduced pressure using a MT-24 cell harvester (Brandell, Gaithersburgh, Md., USA). Filters were washed three times with 9 mL ice-cold buffer. Radioactivity was determined in a Beckman 5500B γ-counter.

The target of series [1] is T1, human A3ARs (Homo sapiens (Human), UniProt P0DMS8). The experiment in a line: Dissociation kinetics of [125I]I-AB-MECA from human A3ARs. The series is classed as binding. The conditions noted are these: 0.5 h, % decrease of dissociation at 30 min, residual binding of [125I]AB-MECA after 30 min = 100%, Table 2, read-out: hA3AR Ag. Dissociation at 10 μM. The protocol: The dissociation of [^125I]I-AB-MECA was measured as follows. Membranes (20 μg) were preincubated at 25° C. with 0.5 nM [^125I]I-AB-MECA, in a total volume of 100 μl of Tris-HCl buffer (50 mM, pH 8.0) containing 10 mM MgCl2, and 1 mM EDTA for 60 min. The dissociation was then initiated by the addition of 3 μM Cl-IB-MECA with or without allosteric modulators. The time course of dissociation of total binding was measured by rapid filtration at appropriate time intervals. Nonspecific binding was measured after 60-min incubation in the presence of 3 μM Cl-IB-MECA. Further assay was as described above.
T1 sequence (P0DMS8 whole entry): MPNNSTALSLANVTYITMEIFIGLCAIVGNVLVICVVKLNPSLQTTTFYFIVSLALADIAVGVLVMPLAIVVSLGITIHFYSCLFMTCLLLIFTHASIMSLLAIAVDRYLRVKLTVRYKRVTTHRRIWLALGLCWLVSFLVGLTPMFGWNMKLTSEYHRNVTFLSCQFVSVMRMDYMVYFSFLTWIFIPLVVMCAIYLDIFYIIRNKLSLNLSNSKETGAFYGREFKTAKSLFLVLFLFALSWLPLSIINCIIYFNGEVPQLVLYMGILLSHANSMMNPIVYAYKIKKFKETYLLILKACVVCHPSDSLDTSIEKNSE

Series [2] concerns the target T1, human A3ARs. Briefly: Cyclic AMP accumulation assay, efficacy at hA3AR. The series is classed as cell-based. The conditions noted are these: compared to maximal effect by 2-Cl-IB-MECA alone (control = 100%). The protocol:
Intracellular cyclic AMP levels were measured with a competitive protein binding method (Nordstedt and Fredholm, 1990). CHO cells that expressed recombinant human A3ARs were harvested by trypsinization. After centrifugation and resuspension in medium, cells were plated in 24-well plates in 0.5 ml medium. After 24 hr, the medium was removed and cells were washed three times with 1 ml DMEM, containing 50 mM HEPES, pH 7.4. Cells were then treated with agonists and/or test compounds in the presence of rolipram (10 μM) and adenosine deaminase (3 units/ml). After 45 min forskolin (10 μM) was added to the medium, and incubation was continued an additional 15 min. The reaction was terminated by removing the supernatant, and cells were lysed upon the addition of 200 μL of 0.1 M ice-cold HCl. The cell lysate was resuspended and stored at −20° C. For determination of cyclic AMP production, protein kinase A (PKA) was incubated with [^3H]cyclic AMP (2 nM) in K2HPO4/EDTA buffer (K2HPO4, 150 mM; EDTA, 10 mM), 20 μL of the cell lysate, and 30 μL 0.1 M HCl or 50 μL of cyclic AMP solution (0-16 pmol/200 μL for standard curve). Bound radioactivity was separated by rapid filtration through Whatman GF/C filters and washed once with cold buffer. Bound radioactivity was measured by liquid scintillation spectrometry.

Chain of human A3AR (P0DMS8 whole entry): as above
Chain of human A1AR (P30542 whole entry): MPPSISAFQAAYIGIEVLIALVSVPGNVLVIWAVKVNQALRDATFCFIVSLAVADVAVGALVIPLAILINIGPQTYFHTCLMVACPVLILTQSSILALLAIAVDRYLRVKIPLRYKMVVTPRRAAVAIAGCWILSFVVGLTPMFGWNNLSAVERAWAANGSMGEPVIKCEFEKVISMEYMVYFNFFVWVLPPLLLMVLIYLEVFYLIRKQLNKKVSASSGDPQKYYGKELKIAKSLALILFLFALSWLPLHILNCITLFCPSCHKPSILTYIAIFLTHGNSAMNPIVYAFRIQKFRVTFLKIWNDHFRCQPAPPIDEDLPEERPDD

In the case of `COc1ccc(CNc2nc3ccccc3c3[nH]c(C4CCCC4)nc23)cc1` [Compound 38, N-(4-Methoxy-benzyl)-2-cyclopentyl-1H-imidazo[4,5-c]quinolin-4-amine], the melting point was 245 to 247 °C. At human A1AR, the inhibition at 10 µM is 59%. The “hA2AAR % displ. at 10 μM” value at human A2A AR turned out to be 60%. The inhibition at 10 µM at hA2BAR was found to be 0.3%. In addition, at human A3AR, the inhibition at 10 µM worked out at 80%. Further, the activity at 10 µM on human A3ARs [1] was determined as 101 ± 13%. Besides, the “% Increase of efficacy at hA3AR at 10 μM” value at human A3ARs [2] is on record as 109 ± 3%.
Compound `c1ccc2c(c1)nc(Nc1ccc3cc[nH]c3c1)c1nc(C3CCCC3)[nH]c12` [Compound 39, N-(1H-Indol-6-yl)-2-cyclopentyl-1H-imidazo[4,5-c]quinolin-4-amine] came in with a melting point of 260 to 261 °C. In addition, on human A1AR, the inhibition at 10 µM turned out to be 70%. In addition, the “hA2AAR % displ. at 10 μM” value at human A2A AR amounted to 74%. Further, at hA2BAR, the inhibition at 10 µM was determined as 10.1%. The inhibition at 10 µM at human A3AR was 89%. In addition, the activity at 10 µM on human A3ARs [1] is 126 ± 9%. In addition, the “% Increase of efficacy at hA3AR at 10 μM” value at human A3ARs [2] stood at 125 ± 2%.
In turn, `c1ccc(CCNc2nc3ccccc3c3[nH]c(C4CCCC4)nc23)cc1` [Compound 41, N-(Phenylethyl)-2-cyclopentyl-1H-imidazo[4,5-c]quinolin-4-amine] yielded a melting point of 95 to 97 °C. The inhibition at 10 µM on human A1AR turned out to be 52%. Moreover, at human A2A AR, the “hA2AAR % displ. at 10 μM” value was 91%. Moreover, the inhibition at 10 µM on hA2BAR was -11.6%. Further, the inhibition at 10 µM at human A3AR stood at 84%. In addition, the activity at 10 µM on human A3ARs [1] worked out at 154 ± 7%. The “% Increase of efficacy at hA3AR at 10 μM” value on human A3ARs [2] was determined as 137 ± 4%.
As for `Clc1ccc(Nc2nc3ccccc3c3[nH]c(C4CCCCCC4)nc23)cc1Cl` [Compound 42, N-(3,4-Dichloro-phenyl)-2-cycloheptyl-1H-imidazo[4,5-c]quinolin-4-amine], the melting point lay within 236 to 238 °C. On human A1AR, the inhibition at 10 µM was -4%. Further, the “hA2AAR % displ. at 10 μM” value on human A2A AR is −2%. Further, the inhibition at 10 µM at hA2BAR was -7.3%. Besides, the inhibition at 10 µM on human A3AR was 68%. Also, the “affinity to orthosteric versus allosteric binding sites (selective affinity)” value at human A3AR (orthosteric sites of A1, A2A, A2B, A3 receptors vs allosteric site of A3 adenosine receptor) was “selective affinity”. The activity at 10 µM at human A3ARs [1] came to 130 ± 2%. Further, the “% Increase of efficacy at hA3AR at 10 μM” value on human A3ARs [2] worked out at 115 ± 7%.
Compound `Clc1ccc(Nc2nc3ccccc3c3[nH]c(-c4ccco4)nc23)cc1Cl` [Compound 43] yielded a melting point of 135 to 138 °C. Also, at human A1AR, the inhibition at 10 µM is -4%. Besides, the “hA2AAR % displ. at 10 μM” value on human A2A AR is given as 70%. Moreover, the inhibition at 10 µM at hA2BAR came to 9%. Further, the inhibition at 10 µM on human A3AR was determined as 78%. Besides, the activity at 10 µM on human A3ARs [1] came out at 98 ± 3%. For the same compound, the “% Increase of efficacy at hA3AR at 10 μM” value at human A3ARs [2] is listed as 95 ± 4%.
`Clc1ccc(Nc2nc3ccccc3c3[nH]cnc23)cc1Cl` [Compound 46, N-(3,4-Dichloro-phenyl)-2-1H-imidazo[4,5-c]quinolin-4-amine]: the melting point was in the range of 167 to 172 °C. Also, at human A1AR, the inhibition at 10 µM was determined as 1.8%. The “hA2AAR % displ. at 10 μM” value on human A2A AR is −0.8%. For the same compound, the inhibition at 10 µM at hA2BAR was determined as 10.2%. The inhibition at 10 µM at human A3AR was 39%. For the same compound, at human A3ARs [1], the activity at 10 µM came to 91 ± 7%. Also, the “% Increase of efficacy at hA3AR at 10 μM” value at human A3ARs [2] was found to be 92 ± 4%.
For the compound `CCCCCc1nc2c(Nc3ccc(Cl)c(Cl)c3)nc3ccccc3c2[nH]1` [Compound 47, N-(3,4-Dichloro-phenyl)-2-pentyl-1H-imidazo[4,5-c]quinolin-4-amine], the melting point lay within 195 to 200 °C. In addition, the inhibition at 10 µM at human A1AR came out at 43.9%. Also, on human A2A AR, the “hA2AAR % displ. at 10 μM” value is on record as −1%. Moreover, on hA2BAR, the inhibition at 10 µM is -9.3%. Further, the inhibition at 10 µM on human A3AR is 84%. For the same compound, the activity at 10 µM at human A3ARs [1] is 116 ± 5%. Also, the “% Increase of efficacy at hA3AR at 10 μM” value on human A3ARs [2] turned out to be 102 ± 5%.

What is called melting point is the temperature, or range, at which the solid turns liquid.

Values taken from patent US9326978B2, “A3 adenosine receptor allosteric modulators” (The United States of America, Represented by the Secretary, …, priority 2006, dated 2016).
